# System: Lipoxygenase in PMN Leucocytes
# Experiment: Inhibition of lipoxygenase in PMN leucocytes (liberation of 5-HETE and leukotriene B4)
# Type: cell-based, humans and rabbits
# Details: in vitro
# Description: The polymorphonuclear leucocytes of humans and of rabbits metabolise arachidonic acid to 5-hydroxy-5,8,11,14-eicosatetraenoic acid (5-HETE) and leukotriene B4 (5S, 12R-dihydroxy-6 cis, 8,10-trans-14 cis-eicosatetraenoic acid). The inhibition of the liberation of 5-HETE and leukotriene B4 from the leucocytes provides a measure of the lipoxygenase-inhibitory effect of the compounds according to the invention. (Compare Table 1).
# The test with human leucocytes is carried out by the method of Borgeat and Samuelsson (j. Biol. Chem. 254; 2643, 1979 and Proc. Natl. Acad. Sci. USA, 76, 2148 (1979), and with rabbit leucocytes by the method of Walker and Parish (Inter. Archs. Allergy appl. Immun. 66, 83, 1981).
row,Structure (SMILES),Minimum concentration (g/ml) for inhibition of Lipoxygenase in PMN Leucocytes
1,Clc1cc(Cl)c2c(c1)Nc1[nH]ncc1O2,10^-6 g/ml
2,Cc1ccc2c(c1)Nc1c(cnn1-c1ccccc1)S2,10^-5 g/ml
3,CN1c2ccccc2Cc2cn(C)nc21,> 10^-5 g/ml
4,CN1c2ccccc2Cc2cnn(-c3ccccc3)c21,> 10^-5 g/ml
5,CN1c2ccccc2Cc2cnn(C(=O)c3ccc(Cl)cc3)c21,> 10^-5 g/ml
6,c1ccc(N2c3ccccc3Cc3cn[nH]c32)cc1,> 10^-5 g/ml
7,COc1ccc2c(c1)Nc1[nH]ncc1O2,< 10^-6 g/ml
8,CCN1c2cc(OC)ccc2Oc2cn[nH]c21,< 10^-6 g/ml
9,COc1ccc2c(c1)N(C)c1nn(C)cc1O2,> 10^-5 g/ml
10,Oc1ccc2c(c1)Nc1[nH]ncc1O2,< 10^-6 g/ml
11,COc1ccc2c(c1)Oc1cn[nH]c1N2,< 10^-6 g/ml
12,c1ccc(CN2c3ccccc3Oc3cn[nH]c32)cc1,10^-6 g/ml
13,CN1c2ccccc2Oc2cn(CCO)nc21,> 10^-5 g/ml
14,CCOC(=O)CN1c2ccccc2Oc2cn[nH]c21,> 10^-5 g/ml
15,CC(=O)n1cc2c(n1)N(C)c1ccccc1S2,> 10^-5 g/ml
16,CC(C)N1c2ccccc2Oc2cn[nH]c21,< 10^-6 g/ml
17,c1ccc2c(c1)Oc1cn[nH]c1N2CC1CCCCC1,10^-5 g/ml
18,COc1ccc2c(c1)Nc1c(cnn1C(C)=O)O2,10^-5 g/ml
19,CCN1c2cc(OCC(=O)O)ccc2Oc2cn(C)nc21,10^ -5 g/ml

row,Structure (SMILES),Minimum concentration (g/ml) for inhibition of Lipoxygenase in PMN Leucocytes
1,CN1c2ccccc2Cc2cn(C(=O)OCc3ccccc3)nc21,> 10^-5 g/ml
2,Cn1cc2c(n1)N(c1ccccc1)c1ccccc1C2,> 10^-5 g/ml
3,Cn1ncc2c1N(c1ccccc1)c1ccccc1C2,> 10^-5 g/ml
4,CN1c2ccccc2Oc2cn(CCOc3ccc4ccccc4c3)nc21,> 10^-5 g/ml
5,CCN1c2cc(O)ccc2Oc2cn(C)nc21,< 10^-5 g/ml
6,CCN1c2cc(OCC(=O)OCc3ccccc3)ccc2Oc2cn(C)nc21,10^-5 g/ml
7,Cn1cc2c(n1)N(CC1CCCCC1)c1ccccc1O2,> 10^-5 g/ml
8,CC(C)N1c2ccccc2Oc2cn(C)nc21,> 10^-5 g/ml
9,CN1c2ccccc2Oc2cn(Cc3ccc(Cl)c(Cl)c3)nc21,> 10^-5 g/ml
10,FC(F)(F)c1ccc2c(c1)Nc1[nH]ncc1O2,< 10^-5 g/ml
11,FC(F)(F)Sc1ccc2c(c1)Nc1[nH]ncc1O2,< 10^-5 g/ml
12,c1ccc(N2c3ccccc3Oc3cn[nH]c32)cc1,10^-5 g/ml
13,CN1c2cc(OCc3ccccc3)ccc2Oc2cn[nH]c21,< 10^-5 g/ml
14,COc1ccc2c(c1)Oc1cn[nH]c1N2C,< 10^-5 g/ml
15,COc1ccc2c(c1)Oc1cnn(C)c1N2C,> 10^-5 g/ml
16,c1ccc(COCCN2c3ccccc3Oc3cn[nH]c32)cc1,10^-5 g/ml
17,OCCN1c2ccccc2Oc2cn[nH]c21,< 10^-5 g/ml
18,CCN1c2ccc(OC)cc2Oc2cn[nH]c21,< 10^-5 g/ml

# Reference: patent US4552874A, “Pyrazolooxazines, pyrazolothiazines, and pryazoloquinolines and their use as medicaments” (Bayer Aktiengesellschaft, priority 1982, dated 1985)
